Test results taken from patent US10471046B2, “Method for treating, preventing, or reducing the risk of skin infection” (Melinta Subsidiary Corp., priority 2014, dated 2019).
Values after ≈ are worked out from the molar mass of the structure shown. Where two headings read alike, the source gives them in different places.

Test system: S. aureus
Assay: Minimum inhibitory concentrations (MICs) for S. aureus of exemplary compounds (Table 2)
Format: cell-based
Conditions: Staphylococcus aureus, read-out: MICs
Method in brief: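 Growth of S. aureus in media with or without compound, by broth microdilution in microtiter trays following NCCLS M7-A5 guidelines. Values are MICs in μg/mL.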

[1] = minimum inhibitory concentrations for S. aureus

| Compound | MIC [1] [µg/mL] | MIC [µg/mL] |
| --- | --- | --- |
| CC(=O)NC[C@H]1CN(c2ccc(-c3ccc(CN[C@@H](Cc4c[nH]c5ccccc45)C(N)=O)cc3)c(F)c2)C(=O)O1 [Compound 4175, 2-({4′-[5-(S)-(Acetylamino-methyl)-2-oxo-oxazolidin-3-yl]-2′-fluoro-biphenyl-4-ylmethyl}-amino)-3-(S)-(1H-indol-3-yl)-propionamide] | 2 (≈ 3.68 µM) | – |
| CC(=O)NC[C@H]1CN(c2ccc(-c3ccc(CNc4nc(CN)ns4)cc3)c(F)c2)C(=O)O1 [Compound 2012, N-(3-{4′-[(3-Aminomethyl-[1,2,4]thiadiazol-5-ylamino)-methyl]-2-fluoro-biphenyl-4-yl}-2-oxo-oxazolidin-5-(S)-ylmethyl)-acetamide] | 1 (≈ 2.13 µM) | – |
| CC(=O)NC[C@H]1CN(c2ccc(-c3ccc([C@@H](O)CNCc4cocn4)cc3)c(F)c2)C(=O)O1 [Compound 4199, N-[3-(2-Fluoro-4′-{1-(R)-hydroxy-2-[(oxazol-4-ylmethyl)-amino]-ethyl}-biphenyl-4-yl)-2-oxo-oxazolidin-5-(S)-ylmethyl]-acetamide] | 4 (≈ 8.54 µM) | – |
| CC(=O)NC[C@H]1CN(c2ccc(-c3ccc(CNCC4CCNC4)cc3)c(F)c2)C(=O)O1 (mixture of isomers) [Compound 4153, N-[3-(2-Fluoro-4′-{[(pyrrolidin-3-(R/S)-ylmethyl)-amino]-methyl}-biphenyl-4-yl)-2-oxo-oxazolidin-5-(S)-ylmethyl]-acetamide] | 4 | – |
| CC(=O)NC[C@H]1CN(c2ccc(-c3ccc([C@H](CO)NCc4ccnc5ccccc45)cc3)c(F)c2)C(=O)O1 [Compound 4031, N-[3-(2-Fluoro-4′-{2-hydroxy-1-(R)-[(quinolin-4-ylmethyl)-amino]-ethyl}-biphenyl-4-yl)-2-oxo-oxazolidin-5-(S)-ylmethyl]-acetamide] | 2 (≈ 3.78 µM) | – |
| CC(=O)NC[C@H]1CN(c2ccc(-c3ccc(CN/C(=N\O)c4ccncc4)cc3)c(F)c2)C(=O)O1 [Compound 4285, N-[3-(2-Fluoro-4′-{[(N-hydroxy-pyridine-4-carboximidoyl)-amino]-methyl}-biphenyl-4-yl)-2-oxo-oxazolidin-5-(S)-ylmethyl]-acetamide] | 8 (≈ 16.8 µM) | – |
| CC(=O)NC[C@H]1CC(c2ccc(-c3ccc(CNCc4ccncc4)cc3)cc2)=NO1 [Compound 4132, N-[3-(4′-{[(Pyridin-4-ylmethyl)-amino]-methyl}-biphenyl-4-yl)-4,5-dihydro-isoxazol-5-(R)-ylmethyl]-acetamide] | 4 (≈ 9.65 µM) | – |
| CC(=O)NC[C@H]1CN(c2ccc(-c3ccc(CNCc4ccc5cccnc5c4)cc3)c(F)c2)C(=O)O1 [Compound 4138, N-[3-(2-Fluoro-4′-{[(quinolin-7-ylmethyl)-amino]-methyl}-biphenyl-4-yl)-2-oxo-oxazolidin-5-(S)-ylmethyl]-acetamide] | 1 (≈ 2.01 µM) | – |
| CC(=O)NC[C@H]1CN(c2ccc(-c3ccc(CNC(=O)/C=C/c4cn(C)c(=O)n(C)c4=O)cc3)c(F)c2)C(=O)O1 [Compound 4005, N-{4′-[5-(S)-(Acetylamino-methyl)-2-oxo-oxazolidin-3-yl]-2′-fluoro-biphenyl-4-ylmethyl}-3-(1,3-dimethyl-2,4-dioxo-1,2,3,4-tetrahydro-pyrimidin-5-yl)-acrylamide] | 2 (≈ 3.64 µM) | – |
| CC(=O)NC[C@H]1CN(c2ccc(-c3ccc(CNCc4n[nH]c(=O)[nH]4)cc3)c(F)c2)C(=O)O1 [Compound 4178, N-[3-(2-Fluoro-4′-{[(5-(S)-oxo-4,5-dihydro-1H-[1,2,4]triazol-3-ylmethyl)-amino]-methyl}-biphenyl-4-yl)-2-oxo-oxazolidin-5-(S)-ylmethyl]-acetamide] | 8 (≈ 17.6 µM) | – |
| CC(=O)NC[C@H]1CN(c2ccc(-c3ccc(Cn4cc(C)cn4)cc3)c(F)c2)C(=O)O1 [Compound 1052, N-{3-[2-Fluoro-4′-(4-methyl-pyrazol-1-ylmethyl)-biphenyl-4-yl]-2-oxo-oxazolidin-5-(S)-ylmethyl}-acetamide] | 1 (≈ 2.37 µM) | – |
| CC(=O)NC[C@H]1CN(c2ccc(-c3ccc(CNCc4nccs4)c(F)c3)c(F)c2)C(=O)O1 [Compound 4154, N-[3-(2,3′-Difluoro-4′-{[(thiazol-2-ylmethyl)-amino]-methyl}-biphenyl-4-yl)-2-oxo-oxazolidin-5-(S)-ylmethyl]-acetamide] | 1 (≈ 2.12 µM) | – |
| CCOC(=O)c1c(CNCc2ccc(-c3ccc(N4C[C@H](CNC(C)=O)OC4=O)cc3F)cc2)c(C)n(C2CC2)c1C [Compound 4157, 4-[({4′-[5-(S)-(Acetylamino-methyl)-2-oxo-oxazolidin-3-yl]-2′-fluoro-biphenyl-4-ylmethyl}-amino)-methyl]-1-cyclopropyl-2,5-dimethyl-1H-pyrrole-3-carboxylic acid ethyl ester] | 8 (≈ 13.9 µM) | – |
| CSc1ccc(CNCc2ccc(-c3ccc(N4C[C@H](CNC(C)=O)OC4=O)cc3F)cc2)s1 [Compound 4167, N-[3-(2-Fluoro-4′-{[(5-methylsulfanyl-thiophen-2-ylmethyl)-amino]-methyl}-biphenyl-4-yl)-2-oxo-oxazolidin-5-(S)-ylmethyl]-acetamide] | 2 (≈ 4 µM) | – |
| CC(=O)NC[C@H]1CN(c2ccc(-c3ccc(CNCc4ccc5ncccc5c4)cc3)c(F)c2)C(=O)O1 [Compound 4071, N-[3-(2-Fluoro-4′-{[(quinolin-6-ylmethyl)-amino]-methyl}-biphenyl-4-yl)-2-oxo-oxazolidin-5-(S)-ylmethyl]-acetamide] | 2 (≈ 4.01 µM) | – |
| CC(=O)NC[C@H]1CN(c2ccc(-c3ccc(Cn4cnc5c(N)ncnc54)cc3)c(F)c2)C(=O)O1 [Compound 1110, N-{3-[4′-(6-Amino-purin-9-ylmethyl)-2-fluoro-biphenyl-4-yl]-2-oxo-oxazolidin-5-(S)-ylmethyl}-acetamide] | 1 (≈ 2.1 µM) | – |
| CCOC(=O)c1c[nH]c(SCCNCc2ccc(-c3ccc(N4C[C@H](CNC(C)=O)OC4=O)cc3F)cc2)n1 [Compound 5010, 2-[2-({4′-[5-(S)-(Acetylamino-methyl)-2-oxo-oxazolidin-3-yl]-2′-fluoro-biphenyl-4-ylmethyl}-amino)-ethylsulfanyl]-1H-imidazole-4-carboxylic acid ethyl ester] | 4 (≈ 7.2 µM) | – |
| CC(=O)NC[C@H]1CN(c2ccc(-c3ccc(CNCc4ccnc5ccccc45)cc3)c(F)c2)C(=O)O1 [Compound 4016, N-[3-(2-Fluoro-4′-{[(quinolin-4-ylmethyl)-amino]-methyl}-biphenyl-4-yl)-2-oxo-oxazolidin-5-(S)-ylmethyl]-acetamide] | 1 (≈ 2.01 µM) | – |
| CC(=O)NC[C@H]1CC(c2ccc(-c3ccc(CNC(=O)c4ccccc4C(=O)O)cc3)nc2)=NO1 [Compound 4107, N-(4-{5-[5-(R)-(Acetylamino-methyl)-4,5-(S)-dihydro-isoxazol-3-yl]-pyridin-2-yl}-benzyl)-phthalamic acid] | 128 (≈ 271 µM) | – |
| CC(=O)NC[C@H]1CN(c2ccc(-c3ccc(CSc4cnn[nH]4)cc3)c(F)c2)C(=O)O1 [Compound 2016, N-{3-[2-Fluoro-4′-(3H-[1,2,3]triazol-4-ylsulfanylmethyl)-biphenyl-4-yl]-2-oxo-oxazolidin-5-(S)-ylmethyl}-acetamide] | 0.25 (≈ 0.566 µM) | – |
| CC(=O)NC[C@H]1CN(c2ccc(-c3ccc(CNCc4cncnc4)cc3)c(F)c2)C(=O)O1 [Compound 4203, N-[3-(2-Fluoro-4′-{[(pyrimidin-5-ylmethyl)-amino]-methyl}-biphenyl-4-yl)-2-oxo-oxazolidin-5-(S)-ylmethyl]-acetamide] | – | 1 (≈ 2.22 µM) |
| CC(=O)NC[C@H]1CN(c2ccc(-c3ccc(Cn4nnc(C(N)=O)c4N)cc3)c(F)c2)C(=O)O1 [Compound 1026, 1-{4′-[5-(S)-(Acetylamino-methyl)-2-oxo-oxazolidin-3-yl]-2′-fluoro-biphenyl-4-ylmethyl}-5-amino-1H-[1,2,3]triazole-4-carboxylic acid amide] | 2 (≈ 4.28 µM) | – |
| CC(=O)NC[C@H]1CN(c2ccc(-c3ccc(CNCc4nn(C)cc4Cl)cc3)c(F)c2)C(=O)O1 [Compound 4139, N-[3-(4′-{[(4-Chloro-1-methyl-1H-pyrazol-3-ylmethyl)-amino]-methyl}-2-fluoro-biphenyl-4-yl)-2-oxo-oxazolidin-5-(S)-ylmethyl]-acetamide] | 2 (≈ 4.12 µM) | – |
| CC(=O)NC[C@H]1CN(c2ccc(-c3ccc(CNCc4cc5ccccc5o4)cc3)c(F)c2)C(=O)O1 [Compound 4020] | 2 (≈ 4.1 µM) | – |
| CC(=O)NC[C@H]1CN(c2ccc(-c3ccc(Cn4cc(CNC(=O)CN)nn4)cc3)c(F)c2)C(=O)O1 [Compound 1014, N-(1-{4′-[5-(S)-(Acetylamino-methyl)-2-oxo-oxazolidin-3-yl]-2′-fluoro-biphenyl-4-ylmethyl}-1H-[1,2,3]triazol-4-ylmethyl)-2-amino-acetamide] | 8 (≈ 16.1 µM) | – |
| CC(=O)NC[C@H]1CN(c2ccc(-c3ccc(C[S+]([O-])c4cnn[nH]4)cc3)c(F)c2)C(=O)O1 (stereo partly drawn) [Compound 2021, N-{3-[2-Fluoro-4′-(3H-[1,2,3]triazole-4-sulfinylmethyl)-biphenyl-4-yl]-2-oxo-oxazolidin-5-(S)-ylmethyl}-acetamide] | 2 (≈ 4.37 µM) | – |
| CC(=O)NC[C@H]1CN(c2ccc(-c3ccc(CN4CCC(C(N)=O)C4)cc3)c(F)c2)C(=O)O1 (mixture of isomers) [Compound 1093, 1-{4′-[5-(S)-(Acetylamino-methyl)-2-oxo-oxazolidin-3-yl]-2′-fluoro-biphenyl-4-ylmethyl}-pyrrolidine-3-(R/S)-carboxylic acid amide] | 2 | – |
| CC(=O)NC[C@H]1CN(c2ccc(-c3ccc(CNCC4CCN(C(=O)OC(C)(C)C)CC4)cc3)c(F)c2)C(=O)O1 [Compound 4298, 4-[({4′-[5-(S)-(Acetylamino-methyl)-2-oxo-oxazolidin-3-yl]-2′-fluoro-biphenyl-4-ylmethyl}-amino)-methyl]-piperidine-1-carboxylic acid tert-butylester] | 8 (≈ 14.4 µM) | – |
| CC(=O)NC[C@H]1CN(c2ccc(-c3ccc(CNCc4ccc(-c5cccc(S(N)(=O)=O)c5)o4)cc3)c(F)c2)C(=O)O1 [Compound 4158, N-{3-[2-Fluoro-4′-({[5-(3-sulfamoyl-phenyl)-furan-2-ylmethyl]-amino}-methyl)-biphenyl-4-yl]-2-oxo-oxazolidin-5-(S)-ylmethyl}-acetamide] | 2 (≈ 3.37 µM) | – |
| CC(=O)NC[C@H]1CN(c2ccc(-c3ccc(CNCc4cnc[nH]4)cc3)c(F)c2)C(=O)O1 [Compound 4066, N-[3-(2-Fluoro-4′-{[(3H-imidazol-4-ylmethyl)-amino]-methyl}-biphenyl-4-yl)-2-oxo-oxazolidin-5-(S)-ylmethyl]-acetamide] | 8 (≈ 18.3 µM) | – |
